Experimental findings from patent US5214034A, “Catechol derivatives, and preventive and remedial preparations for regressive disorders in the central nervous system containing the same” (priority 1986, dated 1993) are described below.

By LD50 is commonly meant the dose at which mortality reaches 50%.

Like-named read-outs stand apart in the source and are kept apart here.

A short description of one data set: Acute toxicity (LD50). Conditions: mouse, in vivo. The method, then:
The catechol derivative having normal type saturated lower alkyl groups on the ring was administered by intravenous injection (i.v.), intraperitoneal injection (i.p.) or oral route (p.o.) to male ddy mice of 4-week old. The LD50 values (mg/kg) were measured by an ordinary method.

A further data set concerns NGF. The data set can be described thus: NGF production in the central nervous system of normal rats by intraperitoneal injection (NGF content of brain tissue, ELISA). In kind it is in vivo, rat (Wistar male). Conditions: Table 7, i.p., three times every other day; for NGF content after 48 hr.: 48 hours after final administration; for NGF content after 7 days: 7 days after final administration. Here is the method: The derivative (A), e.g. R=Two H, R1 =H and R2 =n-propyl (hereinafter referred to as 4-n-propylcatechol), was administered to normal rats by intraperitoneal injection, and the effect was examined.
4-n-Propylcatechol was administered by intraperitoneal injection 4 times every other day in a dosage of 5 mg/kg. The rats were killed two days after the final administration. The NGF content of each parts in brain was measured. The content was compared with those of control group which was administered saline alone.
A variety of the derivative was administered three times every other day. The content of NGF in the forebrain after 48 hours and 7 days from the final administration was measured and illustrated in Table 7.
Wistar male rats (9-10-week old, 200-250 g of weight) were intraperitoneally injected with the test derivative in a volume of 0.5 ml as a saline solution, emulsion or suspension. Dose and administration times were the same as above. The rats were killed by a hard spinal blow two days after the final administration. Each parts of brain were dissected and subjected to the following treatment under ice cooling.
Each parts of brain were weighed and homogenized for 30 strokes by a Dounce type homogenizer in a homogenization buffer (0.1 M Tris-HCl, containing 2% bovine serum albumin fraction V, 2% gelatin, 1.0 M NaCl, 0.02% NaN3, 2 mM EDTA and 2.6 kiu/ml of aprotinin, pH 7.6) at a concentration of 10% (W/V) (only septum 5% (W/V)). Each homogenate was centrifuged at 100,000 xg for 10 minutes, and 50 μl of supernatant was added with the same amount of a dilution buffer (0.1 M Tris-HCl containing 2% bovine serum albumin fraction V, 0.05% NaN3 and 20 mM CaCl2, pH 7.6). Determination was conducted in accordance with a method of S. Furukawa et al. by using a high sensitivity ELISA system on 8-NGF which was described in J. Neurochem., 40, 734-744 (1983). Lower limit of determination is 0.25 pg/ml. Data are indicated as a mean value ±SE on the NGF content of tissue (pg/mg wet tissue) of five rats.
A general note: ELISA stands for enzyme-linked immunosorbent assay.

In data set [1] the test system is rats injected with kainic acid at basal forebrain / sham-operated rats. The data set can be described thus: Retention of passive avoidance learning: prevention of retention deficits. The class given is in vivo, rat (male Sprague-Dawley). Conditions: Table 8, i.p. 5 mg/kg on days 1, 4, 7. The method, then: (§1) Effects of the derivative on the behavioral parameters of rats injected with kainic acid at basal forebrain were characterized with regard to both prevention against deficits in retention of passive avoidance learning and promotion of recovery from damaged state by repeated learning.
(§2) Male Sprague-Dawley rats (9-10 weeks of age, 200-250 g of weight) were anesthetized with Nembutal (50 mg/kg, i.p.) and placed in a stereotaxic apparatus. Bilateral lesions of the ventral globus pallidus were made by direct stereotaxic application (0.7 mm posterior to bregma, 2.7 mm lateral to the midline, and 7.0 mm ventral to the brain surface) of 0.25 μg of kainic acid in 1 μl of PBS (pH 7.4) to prepare disordered models. Controls were sham-operated rats injected with PBS in place of kainic acid solution.
(§3) Passive avoidance procedures were performed by using a two chambered step-through passive avoidance apparatus with a guillotine door. A 3 mA scrambled shock was delivered to the dark floor grids for 3 seconds as a punishment. Habituation trial was conducted prior to the acquisition trial. Each rats were placed in the illuminated chamber and the guillotine door was raised after 10 seconds. As soon as the rats entered into the dark chamber, the door was lowered. The rats were removed after 10 seconds and returned to their home cages. […] The acquisition trial was performed similarly to the habituation trial. In the former case, a rat was placed in the illuminated room and the door was opened after 10 seconds. The door was shut immediately after the rat entered into the dark room, a scrambled foot shock was applied, and then the animal was removed. The latency to enter the dark chamber after opening the door was recorded for 300 seconds in the retention of passive avoidance. The latency exceeding 300 seconds was calculated as 300 seconds.
The preventive effects on deficits in retention were estimated by using 60 rats. Thirty rats were injected with kainic acid and other 30 rats were sham-operated with PBS.
Each groups of animals were equally divided into three groups which were received intraperitoneally 5 mg/kg of the derivative (A) (R=2H, R1 =H, R2 =n-propyl, that is, 4-n-propylcatechol), derivative A (R=--CO--, R1 =H, R2 =n-propyl) and saline respectively as a saline solution on one, four and seven days after the operation.
Table 8 illustrates the results obtained by conducting the acquisition trial 10 days after the operation and the retention test after 24 hours.

For data set [2], the system named is rats injected with kainic acid at basal forebrain. The data set can be described thus: Promotion of recovery from retention deficits by repeated learning (passive avoidance). To be noted: Table 9, i.p. 5 mg/kg before each trial. In kind it is in vivo, rat (male Sprague-Dawley). On the set-up: key: latency in seconds to enter dark chamber, capped at 300 s. Here is the method: as §1, §2, §3
The promoting effects on the recovery by repeated training from the damaged state of retention were acessed by using 30 rats injected with kainic acid. Rats were subjected to the acquisition trial 10 days after the operation. The rats were equally divided into 3 groups after 24 hours and injected intrapenitroneally with 5 mg/kg of 4-n-propylcatechol and the derivative (A) (R=--CO--, R=H, R2 =n-propyl) respectively as a saline solution. The remaining 10 rats were intraperitoneally injected with saline alone. The first retention trial was carried out two days after the injection. Rats which entered into the dark chamber within 30 seconds were punished by the scrambled foot shock as a training. On the next day, all animals were administered again the same amount of test derivative or saline. These animals were subjected to the second retention trial two days after the second injection.
Retention trials, punishments and additional administrations were repeated as mentioned above four times in all.

Data set [3] deals with production and secretion of NGF on L-M cells. Briefly: Promoting action for the production and secretion of NGF on L-M cells of mouse (ELISA). The class given is cell-based. To be noted: Mus musculus, 24 h, read-out: Ratio of NGF increase. An excerpt: Catecholamines have also been found in a relatively high concentration to accelerate these functions without being mediated by adrenergic receptors [Y. Furukawa et al., J. Biol. Chem., 261, 6039-6047 (1986)].
The compound having a high activity in Table 1, that is, the catechol derivative having a n-alkyl group in the 3 or 4 position on the ring has been observed an acute cell toxicity in higher concentrations. The toxicity was considered the result of two hydroxyl groups in the catechol structure. Then the hydroxyl groups were esterified or etherified and the resulting derivative was examined the effect on the activity for the production and secretion of NGF.
The experiment was performed according to the procedures of Y. Furukawa et al. which is described in J. Bis Chem., 261, 6039-6047 (1986).
The medium was cultured for 3 days at a temperature of 37° C. After completing the confluency (about 10^6 cells/well), the medium was changed to Medium 199 (0.5 ml/well) containing 0.5% bovine serum albumin (Fraction V, a product of Armour Co.). The sample of the derivative is contained in the medium at a prescribed concentration as illustrated in the Tables.

For data set [4], the system named is production and secretion of NGF in brain astroglial cells. The data set can be described thus: Promoting activity for the production and secretion of NGF in brain astroglial cells of mouse (ELISA). To be noted: 24 h. The method, then:
The experiment was performed by inducing the astroglial cells from mouse forebrain to culture system according to the procedures of S. Furukawa et al. which is described in Biochem. Biophys. Res. Commun., 136, 57-63 (1986).
That is, forebrains of 8-day old mice were dissected out and cut into small pieces. […] Cells and cell clamps were recovered by centrifugation at 200 xg for 5 minutes. They were cultured in Dulbecco modified Eagle's medium (a product of Gibco Co. hereinafter abbreviated as DMEM) containing 10% of fetal calf serum, […] of penicillin, and 50 μg/ml of streptomycin, for 10 to 14 days with medium changes every 3 days. After completing confluency, the cells were dissociated by trypsin treatment and recultured in new culture flasks. This procedure was repeated further twice and more. […] The cells will hereinafter be referred to as astroglial cells.
Astroglial cells were innoculated in 24-well plates having a well surface area of 2.1 cm^2 (a product of Falcon Co.) at a cell density of about 3×10^4 cells/well and cultured for 3 days in DMEM . medium supplemented with 10% of fetal calf serum. After completing confluency about 10^7 cells/well), the medium was changed to DMEM medium (0.5 ml/well) supplemented with 0.5% of bovine serum albumin ((fraction V) and cultured for 3 days. The culture was further continued with medium changes every 3 days. After cells were practically synchronized in the quiscent stage, the medium was changed to 0.5 ml of the medium supplemented with 0.5% of bovine serum albumin and containing a prescribed concentration of test sample as illustrated in Tables. […] Data are expressed as fold increase in NGF content over that in the absence of the test sample. […] Data are presented as means ±SE of four determinations.

Regarding `CCCc1ccc2oc(=O)oc2c1` [R = --CO--, R1 = H, R2 = n-Propyl], the LD50 is more than 1000 mg/kg in the data set “Acute toxicity (LD50)” (ip, intraperitoneal injection, read-out: LD50 i.p.); more than 250 mg/kg in “Acute toxicity (LD50)” (intravenous injection, read-out: LD50 i.v.); more than 2500 mg/kg in the data set “Acute toxicity (LD50)” (oral route, read-out: LD50 p.o.). For the same compound, in the data set on NGF, the “NGF content after 48 hr.” value is 1.66 ± 0.23 pg/mg wet tissue of frontal co. Moreover, in the data set on NGF, the “NGF content after 7 days” value is on record as 2.23 ± 0.39 pg/mg wet tissue of frontal co. In addition, the results for the “Animals with more than 150 sec of latency” value in data set [1] (rats operated with kainic acid) and in data set [1] (sham-operated rats) were 4 in 10 animals and 10 in 10 animals, respectively. In addition, the Mean latency in data set [1] (rats operated with kainic acid, *P < 0.01 vs control) was found to be 152 ± 29 s; in data set [1] (sham-operated rats) it was 291 ± 7 s. Further, in data set [2], the “Mean latency, 1st retention trial” value is 46 ± 13. Further, the “Mean latency, 4th retention trial” value in data set [2] (**P < 0.01) is 284 ± 15. For the same compound, the “Mean latency, 2nd retention trial” value in data set [2] (*P < 0.05) amounted to 167 ± 31. Besides, the “Mean latency, 3rd retention trial” value in data set [2] (*P < 0.05) turned out to be 236 ± 28.

Take `CCCc1cccc(O)c1O` [R = Two H, R1 = n-Propyl, R2 = H]: the LD50 in “Acute toxicity (LD50)” (ip, read-out: LD50 i.p.) was more than 500 mg/kg; in “Acute toxicity (LD50)” (iv, read-out: LD50 i.v.), more than 150 mg/kg; in “Acute toxicity (LD50)” (po, read-out: LD50 p.o.), more than 1500 mg/kg. Moreover, the “NGF content after 48 hr.” value with NGF is on record as 2.03 ± 0.37 pg/mg wet tissue of frontal co. Further, the “NGF content after 7 days” value in the data set on NGF is 2.00 ± 0.43 pg/mg wet tissue of frontal co. Further, the fold induction at 30 µM in data set [3] was determined as 9.81 ± 0.92. Moreover, the fold induction at 100 µM in data set [3] was 16.3 ± 2.04; in data set [4] (read-out: Ratio of NGF increase, Table 3, 0.10 mM, 24 hours, mean ± SE of four determinations), 72.9 ± 7.09. In data set [4] (read-out: Ratio of NGF increase, Table 3, 0.25 mM, 24 hours, mean ± SE of four determinations), the fold induction at 250 µM was 97 ± 9.24.
